One series has as its system T. rubrum. The series can be described thus: Minimum fungicidal concentration (MFC). The conditions noted are these: Trichophyton rubrum, lowest concentration that killed over 90%. The format is cell-based. The source says: (§1) (C10) is a novel compound in development for use as a topical antifungal treatment. The purpose of this study was to determine the minimum inhibitory concentration (MIC) for (C10) against 19 test strains of fungi including: Aspergillus fumigatus (A. fumigatus), Candida Albicans (C. albicans, both fluconazole sensitive and resistant strains), Candida glabrata (C. glabrata), Candida krusei (C. krusei), Cryptococcus neoformans (C. neoformans), Candida parapsilosis (C. parapsilosis), Candida tropicalis (C. tropicalis), Epidermophyton floccosum (E. floccosum), Fusarium solani (F. solani), Malassezia furfur (M. furfur), Malassezia pachydermatis (M. pachydermatis), Malassezia sympodialis (M. sympodialis), Microsporum audouinii (M. audouinii), Microsporum canis (M. canis), Microsporum gypseum (M. gypseum), Trichophyton mentagrophytes (T. mentagrophytes), Trichophyton rubrum (T. rubrum), Trichophyton tonsurans (T. tonsurans). Fungal growth was evaluated after exposure to different concentrations of (C10). In addition, the MIC for (C10) against T. rubrum in the presence of 5% keratin powder and the minimum fungicidal concentration (MFC) for (C10) against T. rubrum and T. mentagrophytes were also determined. Ciclopirox and/or terbinafine and/or fluconazole and/or itraconazole were used as comparators and tested in a similar manner. These studies were conducted at NAEJA Pharmaceutical, Inc. […]

For a further series, the system named is T. mentagrophytes. The series can be described thus: Minimum fungicidal concentration (MFC). The format is cell-based. The conditions noted are these: Trichophyton mentagrophytes, lowest concentration that killed over 90%.
Description: as §1

A short description of series [1]: Stability at room temperature in water and octanol. Format: physicochemical. The procedure: C10 (10 μL of 5000 μg/mL) was added both to 0.5 mL n-octanol and 0.5 mL water in triplicate. Samples were mixed. At 0 h and 24 h samples were stored at ca. −20° C. Twenty five L of sample was used for analysis.
For the octanol sample, 25 μL of ethanol, 25 μL of water and 300 μL of acetonitrile containing the internal standard was added. For the water sample, 25 μL of ethanol, 25 μL of octanol and 300 μL of acetonitrile containing the internal standard [60 mL of acetonitrile add 6 μL of PNP (1000 μg/mL)] was added. For the calibrators 25 μL of octanol, 25 μL of water and 300 μL of acetonitrile containing the internal standard was added. The sample was vortexed for 10 seconds. Two hundred μL of the organic layer were transferred into a clean deactivated autosampler vial.
A 1/concentration weighted linear regression was used for the quantitation of C10. All integration were performed with peak areas using Analyst version 1.3, Applied Biosystems. For C10, peak area ratios analyte to internal standard PNP were used for all quantitation.

The values that follow come from patent publication US9566290B2, “Boron-containing small molecules” (Anacor Pharmaceuticals, Inc., priority 2005, dated 2017).

A word on the MFC: it is the smallest concentration meeting the test's criterion for killing the fungus. Read a high MFC as less potent killing.

Converted amounts (≈) assume the structure as drawn.

`OB1OCc2cc(F)ccc21` [C10, 5-fluorobenzo[c][1,2]oxaborol-1(3H)-ol]: the MFC against T. rubrum was determined as 8 µg/mL (≈ 52.7 µM); with T. mentagrophytes, 16 µg/mL (≈ 105 µM). The “stability in pure water and octanol, in words” value in series [1] (24 h, without continuous mixing) is given as “stable over 24 h”. The “Percent Remaining 24 h versus 0 g” value in series [1] (Octanol) is 93%; in series [1] (Water), 115%. The “Mean” value was found to be 115 µg/mL in series [1] (Octanol, 0 h); 107 µg/mL in series [1] (Octanol, 24 h); 82.5 µg/mL in series [1] (Water, 0 h); 95.0 µg/mL in series [1] (Water, 24 h).
